Experimental data published in ChEMBL document CHEMBL1121391, “Antiamebic amidines and sulfonamides of 5- and 6-amino-2,3-bis(4-alkyl-1-piperazinyl)quinoxalines” (1980).
Activity calls are given as the source filed them. The calls are words filed in the database; no cut-off is given here.

What was measured:
[1] = system: Entamoeba histolytica; test: (§1) Lowest active dose which cured rats with Entamoeba histolytica cecal infection was measured; type: functional, organism-based
[2] = system: Entamoeba histolytica; test: Lowest active dose which cured hamsters with Entamoeba histolytica hepatic infection was measured; type: functional
[3] = system: Entamoeba histolytica; test: as §1; type: functional
[4] = system: Cricetinae gen. sp.; test: Lowest active dose which cured the hamsters with Entamoeba histolytica hepatic infection was measured; IA means inactive; type: functional, organism-based; conditions: Cricetulus griseus

SMILES	Dose [1]	Dose [3] [mg/kg/day]	other results
CC/C(=N\c1cc(Cl)cc2nc(N3CCN(C)CC3)c(N3CCN(C)CC3)nc12)N(C)C	inactive	–	–
CN(C)/C=N/c1cc(Cl)cc2nc(N3CCN(C)CC3)c(N3CCN(C)CC3)nc12 (stereo in doubt; 7)	inactive	–	–
CCCN1CCN(c2nc3ccc(/N=C/N(C)C)cc3nc2N2CCN(CCC)CC2)CC1	–	50	Dose [2]: 100 mg/kg/day
CN1CCN(c2nc3ccc(/N=C/N4CCCCC4)cc3nc2N2CCN(C)CC2)CC1	inactive	–	–
CN1CCN(c2nc3ccc(NS(=O)(=O)c4cccc(C(F)(F)F)c4)cc3nc2N2CCN(C)CC2)CC1	inactive	–	–
CC/C(=N\c1ccc2nc(N3CCN(C)CC3)c(N3CCN(C)CC3)nc2c1)N(CC)CC	inactive	–	–
Cc1ccc(S(=O)(=O)Nc2cccc3nc(N4CCN(C)CC4)c(N4CCN(C)CC4)nc23)cc1	inactive	–	–
C/C(=N\c1cccc2nc(N3CCN(C)CC3)c(N3CCN(C)CC3)nc12)N(C)C	inactive	–	–
CN1CCN(c2nc3ccc(N)cc3nc2N2CCN(C)CC2)CC1	–	50	Dose [4]: inactive
O=[N+]([O-])c1cncn1CCN1CCOCC1 [NIMORAZOLE]	–	20	Dose [2]: 100 mg/kg/day
CN1CCN(/C=N/c2ccc3nc(N4CCN(C)CC4)c(N4CCN(C)CC4)nc3c2)CC1	inactive	–	–
CN1CCN(c2nc3cc(Cl)cc(N)c3nc2N2CCN(C)CC2)CC1	inactive	–	–
CCCN1CCN(c2nc3cccc(N)c3nc2N2CCN(CCC)CC2)CC1	inactive	–	–
CN1CCN(c2nc3cccc(N)c3nc2N2CCN(C)CC2)CC1	–	50	Dose [4]: inactive
CCN(CC)/C(C)=N/c1cc(Cl)cc2nc(N3CCN(C)CC3)c(N3CCN(C)CC3)nc12	inactive	–	–
CCCN1CCN(c2nc3ccc(/N=C(\C)N(C)C)cc3nc2N2CCN(CCC)CC2)CC1	inactive	–	–
CN1CCN(c2nc3cc(Cl)cc(NS(=O)(=O)c4ccc(Cl)cc4)c3nc2N2CCN(C)CC2)CC1	inactive	–	–
Cc1ncc([N+](=O)[O-])n1CCO [METRONIDAZOLE]	–	10	Dose [2]: 10 mg/kg/day
CN(C)CCCN1CCN(/C=N/c2ccc3nc(N4CCN(C)CC4)c(N4CCN(C)CC4)nc3c2)CC1	inactive	–	–
CN(C)/C=N/c1cc(Cl)cc2nc(N3CCN(C)CC3)c(N3CCN(C)CC3)nc12 (stereo in doubt; 21)	inactive	–	–
CN(C)/C=N/c1ccc2nc(N3CCN(C)CC3)c(N3CCN(C)CC3)nc2c1	–	20	Dose [2]: 50 mg/kg/day
CC/C(=N\c1cccc2nc(N3CCN(C)CC3)c(N3CCN(C)CC3)nc12)N(C)C	inactive	–	–
CN(C)CCCc1ccc(/C=N/c2ccc3nc(N4CCN(C)CC4)c(N4CCN(C)CC4)nc3c2)cc1	–	50	–
CCN(/C=N/c1ccc2nc(N3CCN(C)CC3)c(N3CCN(C)CC3)nc2c1)CC	inactive	–	–
Cc1ccc(S(=O)(=O)Nc2ccc3nc(N4CCN(C)CC4)c(N4CCN(C)CC4)nc3c2)cc1	–	50	Dose [2]: 100 mg/kg/day
C/C(=N\c1ccc2nc(N3CCN(C)CC3)c(N3CCN(C)CC3)nc2c1)N(C)C	inactive	–	–
CCCN1CCN(c2nc3ccc(NS(=O)(=O)c4ccc(C)cc4)cc3nc2N2CCN(CCC)CC2)CC1	inactive	–	–
CN1CCN(c2nc3ccc(NS(=O)(=O)c4ccc(Cl)cc4)cc3nc2N2CCN(C)CC2)CC1	inactive	–	–
CCCN1CCN(c2nc3ccc(N)cc3nc2N2CCN(CCC)CC2)CC1	inactive	–	–
CN(C)/C=N/c1cccc2nc(N3CCN(C)CC3)c(N3CCN(C)CC3)nc12	–	10	Dose [2]: 50 mg/kg/day
